From patent US10670605B2, “Cysteine reactive probes and uses thereof” (The Scripps Research Institute, priority 2015, dated 2020)

Tests used:
Assay in all cases: Competitive isoTOP-ABPP in situ (fragment-treated cells)
Type in all cases: cell-based
[1] = biological target: cysteines in MDA-MB-231 and Ramos cells (Homo sapiens, UniProt O00299)
[2] = biological target: T1, cysteines in MDA-MB-231 and Ramos cells (Homo sapiens, UniProt O15294)
T1 sequence (O15294 1-1046): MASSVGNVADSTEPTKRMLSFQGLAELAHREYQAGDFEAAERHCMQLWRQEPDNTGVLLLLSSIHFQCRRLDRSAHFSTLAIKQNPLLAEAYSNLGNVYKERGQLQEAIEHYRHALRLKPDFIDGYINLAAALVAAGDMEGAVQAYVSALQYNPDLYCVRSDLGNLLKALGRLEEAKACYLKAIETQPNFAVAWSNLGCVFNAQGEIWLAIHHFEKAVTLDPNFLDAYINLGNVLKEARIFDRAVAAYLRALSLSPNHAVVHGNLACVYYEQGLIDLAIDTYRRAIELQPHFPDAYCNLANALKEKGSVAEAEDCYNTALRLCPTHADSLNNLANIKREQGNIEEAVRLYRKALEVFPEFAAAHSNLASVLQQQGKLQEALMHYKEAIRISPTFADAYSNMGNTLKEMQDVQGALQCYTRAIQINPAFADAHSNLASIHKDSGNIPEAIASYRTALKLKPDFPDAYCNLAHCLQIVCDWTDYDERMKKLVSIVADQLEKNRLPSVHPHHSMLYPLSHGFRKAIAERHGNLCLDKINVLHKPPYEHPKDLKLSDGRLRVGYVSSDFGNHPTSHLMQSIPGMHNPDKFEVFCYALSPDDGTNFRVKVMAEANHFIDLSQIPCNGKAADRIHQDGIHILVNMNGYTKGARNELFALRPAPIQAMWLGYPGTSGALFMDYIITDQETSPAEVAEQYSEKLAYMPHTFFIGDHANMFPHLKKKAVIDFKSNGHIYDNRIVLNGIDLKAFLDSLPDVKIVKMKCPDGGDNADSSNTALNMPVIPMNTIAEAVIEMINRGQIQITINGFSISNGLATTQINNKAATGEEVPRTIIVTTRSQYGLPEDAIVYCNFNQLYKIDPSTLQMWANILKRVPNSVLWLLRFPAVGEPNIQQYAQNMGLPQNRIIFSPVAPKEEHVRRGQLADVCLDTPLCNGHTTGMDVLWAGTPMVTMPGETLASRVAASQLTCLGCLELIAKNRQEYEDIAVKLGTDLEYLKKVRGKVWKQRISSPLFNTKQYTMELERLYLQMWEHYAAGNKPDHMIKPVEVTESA

[3] = biological target: T2, cysteines in MDA-MB-231 and Ramos cells (Homo sapiens, UniProt P24752)
T2 sequence (P24752 34-427): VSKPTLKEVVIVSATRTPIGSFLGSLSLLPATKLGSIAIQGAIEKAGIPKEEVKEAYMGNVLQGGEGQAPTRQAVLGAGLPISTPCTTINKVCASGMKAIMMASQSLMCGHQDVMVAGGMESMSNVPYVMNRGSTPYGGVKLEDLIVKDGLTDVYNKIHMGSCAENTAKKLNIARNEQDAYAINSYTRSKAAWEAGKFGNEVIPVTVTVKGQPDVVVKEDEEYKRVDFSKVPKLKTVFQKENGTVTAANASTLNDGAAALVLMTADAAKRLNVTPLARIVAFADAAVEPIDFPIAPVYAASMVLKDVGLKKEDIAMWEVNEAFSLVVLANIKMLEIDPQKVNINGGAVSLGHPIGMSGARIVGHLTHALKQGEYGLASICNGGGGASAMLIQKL

[4] = biological target: T3, cysteines in MDA-MB-231 and Ramos cells (Homo sapiens, UniProt P25205)
T3 sequence (P25205 1-808): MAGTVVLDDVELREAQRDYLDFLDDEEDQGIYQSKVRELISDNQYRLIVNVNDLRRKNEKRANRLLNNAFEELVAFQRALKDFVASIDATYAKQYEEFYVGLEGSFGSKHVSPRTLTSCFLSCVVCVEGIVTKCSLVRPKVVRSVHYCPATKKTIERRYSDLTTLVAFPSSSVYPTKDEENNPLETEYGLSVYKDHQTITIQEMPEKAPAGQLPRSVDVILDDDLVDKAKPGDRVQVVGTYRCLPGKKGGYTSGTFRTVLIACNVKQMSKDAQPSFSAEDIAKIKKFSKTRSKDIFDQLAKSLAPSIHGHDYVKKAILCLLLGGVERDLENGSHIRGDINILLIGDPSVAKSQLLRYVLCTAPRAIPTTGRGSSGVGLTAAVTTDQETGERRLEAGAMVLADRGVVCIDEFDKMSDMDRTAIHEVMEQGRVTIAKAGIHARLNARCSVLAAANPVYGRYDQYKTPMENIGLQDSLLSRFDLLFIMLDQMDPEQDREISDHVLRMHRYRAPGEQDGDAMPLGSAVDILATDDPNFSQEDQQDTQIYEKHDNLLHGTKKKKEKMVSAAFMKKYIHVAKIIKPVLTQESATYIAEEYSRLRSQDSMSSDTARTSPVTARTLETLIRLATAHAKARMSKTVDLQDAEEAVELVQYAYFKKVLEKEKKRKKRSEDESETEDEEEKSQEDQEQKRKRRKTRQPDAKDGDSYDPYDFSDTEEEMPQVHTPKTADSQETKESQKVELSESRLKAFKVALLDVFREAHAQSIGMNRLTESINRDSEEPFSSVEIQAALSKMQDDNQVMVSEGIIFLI

[5] = biological target: cysteines in MDA-MB-231 and Ramos cells (Homo sapiens, UniProt P61978)
[6] = biological target: T4, cysteines in MDA-MB-231 and Ramos cells (Homo sapiens, UniProt Q9NS86)
T4 sequence (Q9NS86 1-450): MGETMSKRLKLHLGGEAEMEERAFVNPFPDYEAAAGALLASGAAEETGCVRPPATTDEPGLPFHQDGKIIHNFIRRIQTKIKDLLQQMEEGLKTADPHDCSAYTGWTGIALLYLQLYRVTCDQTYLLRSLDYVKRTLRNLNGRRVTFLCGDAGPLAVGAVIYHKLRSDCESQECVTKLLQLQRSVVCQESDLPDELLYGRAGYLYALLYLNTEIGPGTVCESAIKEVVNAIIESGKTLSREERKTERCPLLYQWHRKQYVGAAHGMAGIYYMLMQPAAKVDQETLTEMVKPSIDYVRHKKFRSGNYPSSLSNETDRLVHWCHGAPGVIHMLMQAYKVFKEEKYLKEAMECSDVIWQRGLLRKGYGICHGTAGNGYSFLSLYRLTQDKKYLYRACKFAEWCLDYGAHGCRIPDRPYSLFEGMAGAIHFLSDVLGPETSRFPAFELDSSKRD

isoTOP-ABPP ratio O00299_C24 ([1]; 100 μM in situ 231)	isoTOP-ABPP ratio O15294_C758 ([2]; 100 μM in situ 231)	isoTOP-ABPP ratio P24752_C119 ([3]; 100 μM in situ 231)	isoTOP-ABPP ratio P24752_C413 ([3]; 100 μM in situ 231)	isoTOP-ABPP ratio, P24752_C126 ([3]; 100 μM in situ 231)	isoTOP-ABPP ratio, P24752_C196 ([3]; 100 μM in situ 231)	isoTOP-ABPP ratio P25205_C119 ([4]; 100 μM in situ 231)	isoTOP-ABPP ratio P61978_C132 ([5]; 100 μM in situ 231)	isoTOP-ABPP ratio Q9NS86_C187 ([6]; 100 μM in situ 231)	isoTOP-ABPP ratio O00299_C24 ([1]; 200 μM, insitu, 231)	isoTOP-ABPP ratio O15294_C758 ([2]; 200 μM, insitu, 231)	isoTOP-ABPP ratio P24752_C119 ([3]; 200 μM, insitu, 231)	isoTOP-ABPP ratio P24752_C413 ([3]; 200 μM, insitu, 231)	isoTOP-ABPP ratio, P24752_C126 ([3]; 200 μM, insitu, 231)	isoTOP-ABPP ratio, P24752_C196 ([3]; 200 μM, insitu, 231)	isoTOP-ABPP ratio P25205_C119 ([4]; 200 μM, insitu, 231)	isoTOP-ABPP ratio P61978_C132 ([5]; 200 μM, insitu, 231)	isoTOP-ABPP ratio Q9NS86_C187 ([6]; 200 μM, insitu, 231)	Structure (SMILES)
–	–	–	–	–	–	–	–	–	1.0	–	1.2	1.1	–	1.0	0.9	1.0	2.0	C=CC(=O)Nc1cc(F)c(N2CCN(C(=O)OC(C)(C)C)CC2)c(F)c1 [compound 38]
–	–	–	–	–	–	–	–	–	–	2.9	12.4	20.0	–	–	6.2	9.3	3.1	CC1CCc2ccccc2N1C(=O)CCl (stereo not drawn) [compound 45]
–	–	–	–	–	–	–	–	–	–	1.1	0.7	1.1	–	–	2.6	1.2	2.0	O=C(CCl)Nc1cccc2ncccc12 [compound 51]

More lines, now with the values behind:

Structure (SMILES)	isoTOP-ABPP ratio O00299_C24 ([1]; 100 μM in situ 231)	isoTOP-ABPP ratio O15294_C758 ([2]; 100 μM in situ 231)	isoTOP-ABPP ratio P24752_C119 ([3]; 100 μM in situ 231)	isoTOP-ABPP ratio P24752_C413 ([3]; 100 μM in situ 231)	isoTOP-ABPP ratio, P24752_C126 ([3]; 100 μM in situ 231)	isoTOP-ABPP ratio, P24752_C196 ([3]; 100 μM in situ 231)	isoTOP-ABPP ratio P25205_C119 ([4]; 100 μM in situ 231)	isoTOP-ABPP ratio P61978_C132 ([5]; 100 μM in situ 231)	isoTOP-ABPP ratio Q9NS86_C187 ([6]; 100 μM in situ 231)	isoTOP-ABPP ratio O00299_C24 ([1]; 200 μM, insitu, 231)	isoTOP-ABPP ratio O15294_C758 ([2]; 200 μM, insitu, 231)	isoTOP-ABPP ratio P24752_C119 ([3]; 200 μM, insitu, 231)	isoTOP-ABPP ratio P24752_C413 ([3]; 200 μM, insitu, 231)	isoTOP-ABPP ratio, P24752_C126 ([3]; 200 μM, insitu, 231)	isoTOP-ABPP ratio, P24752_C196 ([3]; 200 μM, insitu, 231)	isoTOP-ABPP ratio P25205_C119 ([4]; 200 μM, insitu, 231)	isoTOP-ABPP ratio P61978_C132 ([5]; 200 μM, insitu, 231)	isoTOP-ABPP ratio Q9NS86_C187 ([6]; 200 μM, insitu, 231)
Cn1cc(S(=O)(=O)N2CCOCC2)cc1C(=O)NC(=O)CCl [compound 11]	2.5	1.0	1.2	1.2	1.2	1.1	0.7	0.9	0.8	–	–	–	–	–	–	–	–	–
O=C(CCl)NC(=O)NC12CC3CC(CC(C3)C1)C2 [compound 12]	–	–	–	–	–	–	–	–	–	20.0	20.0	4.1	9.9	5.8	4.6	1.0	7.5	2.0
COc1ccccc1OCCNC(=O)CCl [compound 28]	–	–	–	–	–	–	–	–	–	–	1.0	1.0	1.0	1.2	–	–	1.0	–
